Tests used:
[1] = molecular target: hERG potassium channel (Homo sapiens, UniProt Q12809); assay: hERG screening assay (PatchXpress patch clamp, CHO cell line)
[2] = molecular target: wild-type human cardiac sodium channel, hNav1.5 (Homo sapiens, UniProt Q14524); assay: Late INa screening assay (late sodium current, PatchXpress whole cell patch clamp); type: cell-based; conditions: compound at 10 μM; read-out: Late INa % blk
Sequence of wild-type human cardiac sodium channel, hNav1.5 (Q14524 whole entry): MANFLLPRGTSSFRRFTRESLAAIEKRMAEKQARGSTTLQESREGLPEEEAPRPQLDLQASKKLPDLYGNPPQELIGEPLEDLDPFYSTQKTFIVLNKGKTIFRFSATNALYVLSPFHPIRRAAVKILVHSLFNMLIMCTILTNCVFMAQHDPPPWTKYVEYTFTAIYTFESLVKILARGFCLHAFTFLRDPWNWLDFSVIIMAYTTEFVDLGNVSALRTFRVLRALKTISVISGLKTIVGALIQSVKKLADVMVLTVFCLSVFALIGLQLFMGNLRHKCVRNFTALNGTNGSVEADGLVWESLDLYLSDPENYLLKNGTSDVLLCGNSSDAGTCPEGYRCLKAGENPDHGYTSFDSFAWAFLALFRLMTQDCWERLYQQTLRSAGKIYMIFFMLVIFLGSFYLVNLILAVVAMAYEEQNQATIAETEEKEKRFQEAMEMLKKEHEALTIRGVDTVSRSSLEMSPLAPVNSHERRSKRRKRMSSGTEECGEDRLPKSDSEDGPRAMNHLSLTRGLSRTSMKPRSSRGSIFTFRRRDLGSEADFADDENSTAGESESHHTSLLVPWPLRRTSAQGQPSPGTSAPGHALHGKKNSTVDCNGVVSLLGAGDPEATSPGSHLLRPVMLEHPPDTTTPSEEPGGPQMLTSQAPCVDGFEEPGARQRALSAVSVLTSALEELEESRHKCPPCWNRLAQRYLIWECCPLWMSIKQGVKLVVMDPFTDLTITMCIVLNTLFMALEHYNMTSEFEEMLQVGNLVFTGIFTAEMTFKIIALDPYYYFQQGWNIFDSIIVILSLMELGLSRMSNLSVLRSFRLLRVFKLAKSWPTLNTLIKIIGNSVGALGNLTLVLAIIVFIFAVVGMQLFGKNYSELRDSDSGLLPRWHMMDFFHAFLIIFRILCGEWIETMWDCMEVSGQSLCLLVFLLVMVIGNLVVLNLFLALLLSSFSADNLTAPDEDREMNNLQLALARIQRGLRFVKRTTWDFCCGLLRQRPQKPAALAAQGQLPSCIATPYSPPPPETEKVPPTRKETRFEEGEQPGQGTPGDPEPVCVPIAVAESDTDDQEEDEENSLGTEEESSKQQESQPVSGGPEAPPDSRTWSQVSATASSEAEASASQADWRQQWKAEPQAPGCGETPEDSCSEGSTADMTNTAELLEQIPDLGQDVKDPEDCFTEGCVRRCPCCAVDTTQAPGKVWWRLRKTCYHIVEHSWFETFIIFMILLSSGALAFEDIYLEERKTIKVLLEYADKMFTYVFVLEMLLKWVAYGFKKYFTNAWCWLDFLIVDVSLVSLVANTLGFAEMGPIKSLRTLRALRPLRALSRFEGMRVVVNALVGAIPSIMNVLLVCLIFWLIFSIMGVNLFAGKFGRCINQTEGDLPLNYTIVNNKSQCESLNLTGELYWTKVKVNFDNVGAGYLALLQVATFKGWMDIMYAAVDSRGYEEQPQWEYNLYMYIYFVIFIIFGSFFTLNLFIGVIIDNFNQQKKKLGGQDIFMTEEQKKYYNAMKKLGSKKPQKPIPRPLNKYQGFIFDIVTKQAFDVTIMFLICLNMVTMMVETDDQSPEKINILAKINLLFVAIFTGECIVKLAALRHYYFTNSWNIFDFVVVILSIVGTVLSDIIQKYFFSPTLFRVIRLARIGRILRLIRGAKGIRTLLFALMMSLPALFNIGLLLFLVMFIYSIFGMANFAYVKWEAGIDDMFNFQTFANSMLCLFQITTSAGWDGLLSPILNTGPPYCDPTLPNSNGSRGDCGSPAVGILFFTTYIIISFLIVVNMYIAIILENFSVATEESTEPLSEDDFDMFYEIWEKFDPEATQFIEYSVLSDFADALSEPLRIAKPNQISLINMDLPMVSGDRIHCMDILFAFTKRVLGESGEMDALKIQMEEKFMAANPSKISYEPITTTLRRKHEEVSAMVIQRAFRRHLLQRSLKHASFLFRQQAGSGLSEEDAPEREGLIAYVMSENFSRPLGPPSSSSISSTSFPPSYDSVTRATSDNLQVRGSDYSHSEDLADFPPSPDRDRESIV

Sequence of hERG potassium channel (Q12809 whole entry): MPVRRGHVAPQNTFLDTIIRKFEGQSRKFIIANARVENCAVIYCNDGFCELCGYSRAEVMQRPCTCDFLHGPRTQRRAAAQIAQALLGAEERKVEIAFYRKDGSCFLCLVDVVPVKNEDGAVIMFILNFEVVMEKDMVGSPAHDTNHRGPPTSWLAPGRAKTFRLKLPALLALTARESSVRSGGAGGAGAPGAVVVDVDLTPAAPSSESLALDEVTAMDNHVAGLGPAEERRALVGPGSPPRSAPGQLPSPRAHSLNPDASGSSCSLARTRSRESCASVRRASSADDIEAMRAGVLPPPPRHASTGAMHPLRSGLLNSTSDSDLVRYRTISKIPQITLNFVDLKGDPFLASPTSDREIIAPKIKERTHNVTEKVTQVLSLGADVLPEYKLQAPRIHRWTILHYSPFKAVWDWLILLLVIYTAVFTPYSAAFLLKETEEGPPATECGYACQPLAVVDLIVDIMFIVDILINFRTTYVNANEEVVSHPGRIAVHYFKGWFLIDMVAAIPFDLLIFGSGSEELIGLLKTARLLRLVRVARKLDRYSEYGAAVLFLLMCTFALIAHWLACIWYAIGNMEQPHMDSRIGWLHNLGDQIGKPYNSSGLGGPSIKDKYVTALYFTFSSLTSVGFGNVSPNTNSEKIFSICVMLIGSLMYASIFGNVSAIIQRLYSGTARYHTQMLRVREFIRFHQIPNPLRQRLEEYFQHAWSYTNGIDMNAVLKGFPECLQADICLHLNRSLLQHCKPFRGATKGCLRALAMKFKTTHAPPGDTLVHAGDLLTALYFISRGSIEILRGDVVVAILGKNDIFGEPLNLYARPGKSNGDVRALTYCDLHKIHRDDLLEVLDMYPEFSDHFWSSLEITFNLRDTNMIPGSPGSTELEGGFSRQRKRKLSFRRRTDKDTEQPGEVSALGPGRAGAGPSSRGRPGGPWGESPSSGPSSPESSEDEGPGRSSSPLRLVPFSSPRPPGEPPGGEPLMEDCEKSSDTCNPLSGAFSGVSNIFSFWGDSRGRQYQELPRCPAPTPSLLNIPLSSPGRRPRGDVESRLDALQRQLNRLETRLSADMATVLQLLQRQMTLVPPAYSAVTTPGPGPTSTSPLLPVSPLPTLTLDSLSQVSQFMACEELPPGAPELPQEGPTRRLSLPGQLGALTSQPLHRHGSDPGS

Structure (SMILES)	hERG Patch Clamp hERG % blk ([1]; 1 μM) [%]	hERG Patch Clamp hERG % blk ([1]; 10 μM) [%]	inhibition at 10 µM [2] [%]
CCOC(=O)C1=C(C)NC(C)=C(C(=O)OCC)C1c1sc2ccccc2c1C [PT-116, diethyl 2,6-dimethyl-4-(3-methylbenzo[b]thiophen-2-yl)-1,4-dihydropyridine-3,5-dicarboxylate]	22.9	66.0	–
CC1=C(C(=O)OCc2ccccc2)C(c2nccs2)n2nnnc2N1 (stereo not drawn) [PT-364, benzyl 5-methyl-7-(thiazol-2-yl)-4,7-dihydrotetrazolo[1,5-a]pyrimidine-6-carboxylate]	10.0	17.5	25.8
CC1=C(C(=O)OCc2ccccc2)C(c2ccccc2-c2ccccc2)n2nnnc2N1 (stereo not drawn) [PT-025, benzyl 7-(biphenyl-2-yl)-5-methyl-4,7-dihydrotetrazolo[1,5-a]pyrimidine-6-carboxylate]	11.0	53.0	78.8
CC1=C(C(=O)OCc2ccc(Cn3cccn3)cc2)C(c2cccc3ccccc23)n2nnnc2N1 (stereo not drawn) [PT-279, 4-((1H-pyrazol-1-yl)methyl)benzyl 5-methyl-7-(naphthalen-1-yl)-4,7-dihydrotetrazolo[1,5-a]pyrimidine-6-carboxylate]	12.5	45.0	61.2
COC(=O)c1ccc(-c2n[nH]c3c2C(c2cccc4ccccc24)C2=C(COC2=O)N3)cc1 (stereo not drawn) [PT-085, methyl 4-(4-(naphthalen-1-yl)-5-oxo-4,5,7,8-tetrahydro-1H-furo[3,4-b]pyrazolo[4,3-e]pyridin-3-yl)benzoate]	34.0	44.5	9.1
CC1=C(C(=O)O[C@@H](C)c2ccccc2)[C@@H](c2cccc3ccccc23)n2nnnc2N1 [PT-050, (R)-((S)-1-phenylethyl) 5-methyl-7-(naphthalen-1-yl)-4,7-dihydrotetrazolo[1,5-a]pyrimidine-6-carboxylate]	10.0	53.5	94
CCCC1=C(C(=O)OCC)C(c2ccsc2)C2=C(CC(c3ccccc3)CC2=O)N1 (stereo not drawn) [PT-149, ethyl 5-oxo-7-phenyl-2-propyl-4-(thiophen-3-yl)-1,4,5,6,7,8-hexahydroquinoline-3-carboxylate]	24.3	67.0	71.5
CCOC(=O)C1=C(C)Nc2nccn2C1c1ccc2ccccc2c1 (stereo not drawn) [PT-086, ethyl 7-methyl-5-(naphthalen-2-yl)-5,8-dihydroimidazo[1,2-a]pyrimidine-6-carboxylate]	13.5	57.5	38.8
CCOC(=O)C1=C(C)Nc2nnnn2C1c1csc2ccccc12 (stereo not drawn) [PT-017, ethyl 7-(benzo[b]thiophen-3-yl)-5-methyl-4,7-dihydrotetrazolo[1,5-a]pyrimidine-6-carboxylate]	10.0	23.5	45.9
COC(=O)C1=C(C)Nc2nnnn2C1c1cccc2ccccc12 (stereo not drawn) [PT-512, methyl 5-methyl-7-(naphthalen-1-yl)-4,7-dihydrotetrazolo[1,5-a]pyrimidine-6-carboxylate]	10.5	14.0	26.6
N#CC1=C(N)OC2=C(C(=O)CC(c3ccccc3)C2)C1c1ccco1 (stereo not drawn) [PT-104, 2-amino-4-(furan-2-yl)-5-oxo-7-phenyl-5,6,7,8-tetrahydro-4H-chromene-3-carbonitrile]	18.0	46.0	14.3
CC(=O)c1ccc(-c2ccccc2C2C(C(=O)OCc3ccccc3)=C(C)Nc3nnnn32)cc1 (stereo not drawn) [PT-415, benzyl 7-(4′-acetylbiphenyl-2-yl)-5-methyl-4,7-dihydrotetrazolo[1,5-a]pyrimidine-6-carboxylate]	10.5	38.5	75.4
COc1cc(Cl)ccc1COC(=O)C1=C(C)NC2=C(C(=O)CCC2)C1c1c(Cl)cccc1Cl (stereo not drawn) [PT-303, 4-chloro-2-methoxybenzyl 4-(2,6-dichlorophenyl)-2-methyl-5-oxo-1,4,5,6,7,8-hexahydroquinoline-3-carboxylate]	12.0	30.5	59.9
CCOC(=O)C1=C(C)Nc2nnnn2C1c1ccccc1-n1ccnc1C.Cl (stereo not drawn) [PT-457, ethyl 5-methyl-7-(2-(2-methyl-1H-imidazol-1-yl)phenyl)-4,7-dihydrotetrazolo[1,5-a]pyrimidine-6-carboxylate hydrochloride]	10.0	21.0	12.6
CCOC(=O)C1=C(C)NC(C)=C(C(=O)OCC)C1c1cc2ccccc2o1 [PT-122, diethyl 4-(benzofuran-2-yl)-2,6-dimethyl-1,4-dihydropyridine-3,5-dicarboxylate]	15.5	55.0	80.3
CC1=C(C(=O)O[C@@H](C)c2ccccc2)C(c2cc3ccccc3o2)n2nnnc2N1 (stereo partly drawn) [PT-059, (S)-1-phenylethyl 7-(benzofuran-2-yl)-5-methyl-4,7-dihydrotetrazolo[1,5-a]pyrimidine-6-carboxylate]	10.0	66.5	–
CC1=C(C(=O)OCc2ccccc2)C(c2ccccc2-c2ccc(N3CCOCC3)cc2)n2nnnc2N1 (stereo not drawn) [PT-360, benzyl 5-methyl-7-(4′-morpholinobiphenyl-2-yl)-4,7-dihydrotetrazolo[1,5-a]pyrimidine-6-carboxylate]	–	–	7.2

Structure (SMILES)	hERG Patch Clamp hERG % blk ([1]; 1 μM) [%]	hERG Patch Clamp hERG % blk ([1]; 10 μM) [%]	inhibition at 10 µM [2] [%]
COC(=O)C1=C(C)Nc2nnnn2C1c1sc2ccccc2c1Br (stereo not drawn) [PT-520, methyl 7-(3-bromobenzo[b]thiophen-2-yl)-5-methyl-4,7-dihydrotetrazolo[1,5-a]pyrimidine-6-carboxylate]	–	–	78.4
CC1=C(C(=O)OCCOc2ccc(C(=O)O)cc2)C(c2cccc3ccccc23)n2nnnc2N1 (stereo not drawn) [PT-290, 4-(2-(5-methyl-7-(naphthalen-1-yl)-4,7-dihydrotetrazolo[1,5-a]pyrimidine-6-carbonyloxy)ethoxy)benzoic acid]	–	–	14.4
CSc1ccc(C2C(C(=O)OCc3ccccc3)=C(C)Nc3nnnn32)cc1 (stereo not drawn) [PT-356, benzyl 5-methyl-7-(4-(methylthio)phenyl)-4,7-dihydrotetrazolo[1,5-a]pyrimidine-6-carboxylate]	–	–	16.4
CCOC(=O)C1=C(C)NC(C)=C(C(=O)OCC)C1c1ccc(N(C)C)cc1OC [PT-436, diethyl 4-(4-(dimethylamino)-2-methoxyphenyl)-2,6-dimethyl-1,4-dihydropyridine-3,5-dicarboxylate]	–	–	18.7
CC1=C(C(=O)O[C@@H](C)c2ccccc2)[C@H](c2cccc3ccccc23)n2nnnc2N1 [PT-049, (S)-((S)-1-phenylethyl) 5-methyl-7-(naphthalen-1-yl)-4,7-dihydrotetrazolo[1,5-a]pyrimidine-6-carboxylate]	–	–	35.4
CC1=C(C(=O)N2CCC(c3ccccc3)CC2)C(c2cccc3ccccc23)n2nnnc2N1 (stereo not drawn) [PT-066, (5-methyl-7-(naphthalen-1-yl)-4,7-dihydrotetrazolo[1,5-a]pyrimidin-6-yl)(4-phenylpiperidin-1-yl)methanone]	–	–	22.2
CC1=C(C(=O)OCc2ccccc2)C(c2ccccc2-c2cccc(C(F)(F)F)c2)n2nnnc2N1 (stereo not drawn) [PT-349, benzyl 5-methyl-7-(3′-(trifluoromethyl)biphenyl-2-yl)-4,7-dihydrotetrazolo[1,5-a]pyrimidine-6-carboxylate]	–	–	77.3
CCOC(=O)C1=C(C)NC2=C(C(=O)CCC2)C1c1cc2cc(OC)ccc2nc1Cl (stereo not drawn) [PT-188, ethyl 2-chloro-6-methoxy-2′-methyl-5′-oxo-1′,4′,5′,6′,7′,8′-hexahydro-3,4′-biquinoline-3′-carboxylate]	–	–	-0.8
CCOC(=O)C1=C(C)NC(C)=C(C(=O)OCC)C1c1ccc([N+](=O)[O-])cc1OC [PT-433, diethyl 4-(2-methoxy-4-nitrophenyl)-2,6-dimethyl-1,4-dihydropyridine-3,5-dicarboxylate]	–	–	30.3
CC1=C(C(=O)OCc2ccccc2)C(c2ccccc2N2CCOCC2)n2nnnc2N1 (stereo not drawn) [PT-345, benzyl 5-methyl-7-(2-morpholinophenyl)-4,7-dihydrotetrazolo[1,5-a]pyrimidine-6-carboxylate]	–	–	36.7
CC1=C(C(=O)OCc2ccccc2)C(c2ccc(-n3ccnc3)cc2)n2nnnc2N1 (stereo not drawn) [PT-402, benzyl 7-(4-(1H-imidazol-1-yl)phenyl)-5-methyl-4,7-dihydrotetrazolo[1,5-a]pyrimidine-6-carboxylate]	–	–	18.3
CCOC(=O)C1=C(C)NC(C)=C(C(=O)OCC)C1c1ccc(OC)cc1F [PT-432, diethyl 4-(2-fluoro-4-methoxyphenyl)-2,6-dimethyl-1,4-dihydropyridine-3,5-dicarboxylate]	–	–	56.9
COc1cccc(-c2ccccc2[C@@H]2C(C(=O)OCc3ccccc3)=C(C)Nc3nnnn32)c1 [PT-241, (R)-benzyl 7-(3′-methoxybiphenyl-2-yl)-5-methyl-4,7-dihydrotetrazolo[1,5-a]pyrimidine-6-carboxylate]	–	–	77.1
CCOC(=O)C1=C(C)NC(C)=C(C(=O)OCC)C1c1ccc(-c2ccc(Cl)cc2)o1 [PT-118, diethyl 4-(5-(4-chlorophenyl)furan-2-yl)-2,6-dimethyl-1,4-dihydropyridine-3,5-dicarboxylate]	–	–	-3.8
CC1=C(C(=O)OCc2ccccc2)C(c2ccccc2-c2ccc([N+](=O)[O-])cc2)n2nnnc2N1 (stereo not drawn) [PT-361, benzyl 5-methyl-7-(4′-nitrobiphenyl-2-yl)-4,7-dihydrotetrazolo[1,5-a]pyrimidine-6-carboxylate]	–	–	41
CCCC1=C(C(=O)OCC)C(c2ccsc2)C2=C(CCCC2=O)N1 (stereo not drawn) [PT-148, ethyl 5-oxo-2-propyl-4-(thiophen-3-yl)-1,4,5,6,7,8-hexahydroquinoline-3-carboxylate]	–	–	7.6

From patent US20090012103A1, “SUBSTITUTED HETEROCYCLIC COMPOUNDS” (priority 2007, published 2009)
